Data reported in the NIST ThermoML archive (doi:10.1021/je100083w).

Conditions: Liquid, Bellows volumetry

O [water]
Conditions	specific volume [m3/kg]
253.56 K, 298200 kPa	0.0008917
253.56 K, 325300 kPa	0.0008857
253.56 K, 349800 kPa	0.0008804
253.58 K, 223600 kPa	0.0009109
253.58 K, 223700 kPa	0.000911
253.58 K, 273300 kPa	0.0008978
253.58 K, 273600 kPa	0.0008977
253.58 K, 323500 kPa	0.000886
253.6 K, 249400 kPa	0.0009039
253.6 K, 298400 kPa	0.0008918
253.61 K, 248900 kPa	0.0009041
253.63 K, 349100 kPa	0.0008803
253.64 K, 223700 kPa	0.000911
253.64 K, 248300 kPa	0.0009041
253.65 K, 299600 kPa	0.000891
253.67 K, 349800 kPa	0.00088
253.68 K, 273300 kPa	0.0008975
253.69 K, 325300 kPa	0.0008852
253.83 K, 323300 kPa	0.0008861
253.83 K, 349500 kPa	0.0008803
253.86 K, 273400 kPa	0.0008977
253.86 K, 298200 kPa	0.0008918
253.87 K, 248600 kPa	0.0009042
253.9 K, 223600 kPa	0.000911
258.37 K, 198400 kPa	0.00092
258.37 K, 248400 kPa	0.0009059
258.38 K, 274900 kPa	0.0008992
258.4 K, 174000 kPa	0.0009274
258.41 K, 223300 kPa	0.0009127
258.45 K, 299600 kPa	0.0008933
258.46 K, 348900 kPa	0.0008821
258.52 K, 323300 kPa	0.0008877
258.52 K, 324100 kPa	0.0008879
258.53 K, 275300 kPa	0.0008991
258.54 K, 249300 kPa	0.0009057
258.54 K, 298500 kPa	0.0008935
258.55 K, 225000 kPa	0.0009123
258.58 K, 174100 kPa	0.0009275
258.58 K, 349500 kPa	0.0008815
258.59 K, 199300 kPa	0.0009197
258.59 K, 223500 kPa	0.0009124
258.6 K, 198200 kPa	0.0009199
258.6 K, 248400 kPa	0.0009053
258.6 K, 273300 kPa	0.0008992
258.6 K, 323400 kPa	0.0008873
258.6 K, 348800 kPa	0.0008828
258.61 K, 198500 kPa	0.0009196
258.61 K, 223400 kPa	0.0009121
258.61 K, 299200 kPa	0.0008928
258.64 K, 223300 kPa	0.0009126
258.64 K, 248500 kPa	0.0009056
258.65 K, 248300 kPa	0.0009047
258.65 K, 274500 kPa	0.0008977
258.65 K, 299500 kPa	0.0008914
258.66 K, 198400 kPa	0.0009199
258.67 K, 174000 kPa	0.0009274
258.68 K, 173500 kPa	0.0009277
258.68 K, 223300 kPa	0.0009118
258.7 K, 174400 kPa	0.0009274
258.75 K, 199500 kPa	0.000919
258.76 K, 173800 kPa	0.0009274
263.51 K, 299100 kPa	0.0008953
263.52 K, 350000 kPa	0.0008839
263.58 K, 298900 kPa	0.0008957
263.6 K, 249800 kPa	0.0009078
263.61 K, 248800 kPa	0.0009077
263.62 K, 149500 kPa	0.0009371
263.64 K, 198700 kPa	0.0009216
263.64 K, 248800 kPa	0.0009078
263.64 K, 298000 kPa	0.0008957
263.64 K, 349900 kPa	0.0008842
263.65 K, 198400 kPa	0.0009219
263.69 K, 149400 kPa	0.0009369
263.69 K, 198600 kPa	0.0009216
263.69 K, 349100 kPa	0.0008847
263.75 K, 149200 kPa	0.000937
268.42 K, 99500 kPa	0.0009558
268.47 K, 149200 kPa	0.0009384
268.47 K, 248700 kPa	0.0009095
268.47 K, 300200 kPa	0.000897
268.47 K, 348900 kPa	0.0008867
268.48 K, 199300 kPa	0.0009231
268.48 K, 298400 kPa	0.0008977
268.48 K, 349100 kPa	0.0008861
268.51 K, 149700 kPa	0.0009382
268.51 K, 249100 kPa	0.0009096
268.52 K, 149700 kPa	0.0009382
268.52 K, 198400 kPa	0.0009234
268.52 K, 249000 kPa	0.0009097
268.53 K, 198800 kPa	0.0009234
268.55 K, 99400 kPa	0.0009559
268.55 K, 298900 kPa	0.0008975
268.58 K, 99800 kPa	0.0009557
268.6 K, 348900 kPa	0.0008866
273.32 K, 69100 kPa	0.0009686
273.38 K, 298800 kPa	0.0008991
273.4 K, 349400 kPa	0.0008876
273.44 K, 149100 kPa	0.0009398
273.46 K, 99300 kPa	0.0009569
273.48 K, 69100 kPa	0.0009688
273.51 K, 199000 kPa	0.0009249
273.52 K, 69100 kPa	0.0009682
273.52 K, 149000 kPa	0.0009392
273.52 K, 249000 kPa	0.0009109
273.53 K, 99100 kPa	0.0009564
273.55 K, 198900 kPa	0.0009242
273.56 K, 98600 kPa	0.0009574
273.57 K, 149100 kPa	0.00094
273.57 K, 249100 kPa	0.0009117
273.63 K, 249300 kPa	0.000912
273.65 K, 298900 kPa	0.0008999
